*1 amine or outer side, *2 acyl side, *3 side chain or, on linkers, in order; H or OH if unused. Where a SMILES comes first, the peptide text is derived from it. Where no end group is shown, it is not given here. [ ]: non-standard residue; d: D form. The star is where a group is joined. ξ: configuration not given here. BODIPY(FL) = CC1=CC(C)=[N+]2C1=Cc1ccc(CCC(=O)*)n1[B-]2(F)F; X1 = CN(C)c1ccc(/N=N/c2ccc(C(=O)*)cc2)cc1; Ethylenediamine = C(CN[*:2])N[*:1]; Ile(3ξ) = CCC(C)[C@H](N)C(=O)O; AMC = Cc1cc(=O)oc2cc(N*)ccc12
What was measured:
[1] = tested on: recombinant hGzmB (20 nM); test: buffer-1 (50 mM Tris, 100 mM NaCl, pH 7.4); conditions: human, 37° C., up to 2 h
[2] = tested on: co-cultures of E0771 cells and IL-2-activated CD8+ T cells; test: Drug screening, image-based phenotypic screen with H5; type: cell-based, mouse; conditions: drug at working concentration plus IL-2 100 U mL^−1, 3 h
Experimental: Drug screening. E0771 (750 cells/well) and freshly isolated murine CD8+ T cells (6,000 cells/well) were plated in 384-well plates as described above. […] H5 (20 μM) and Hoechst 33342 (1 μM) was added for 1 h at 37° C., washed with PBS and imaged under ImageXpress™ XLS (Molecular Devices) using KRB (10% FBS) buffer as media. Fluorescent images (4 sites/well) were acquired under a 40× objective using 405 nm (Hoechst) and 488 nm (H5) excitation wavelengths and data was analysed with MetaXpress software using the Custom Module Editor. Briefly, nuclei were used as seeds to create a pseudo-cell area and granzyme B positive puncta were detected using a top-hat filter (pixel size: 10, circle shape) followed by an average filter (3×3 pixel).

[3] = tested on: E0771 cells alone or in co-culture with CD8+ T cells; test: AZD5363 follow-up: cell death and H5 staining by flow cytometry; type: cell-based, mouse
Experimental: FIG. 10. […] Co-cultures were stained with probe H5 (5 μM) and AF647-Annexin V (10 nM). Excitation/emission wavelengths: 488 nm/525 nm (for probe H5), 633/670 nm (for AF647-Annexin V). c) Percentages of E0771 cells that were double-stained with probe H5 and AF647-Annexin V under the experimental conditions described in a). Data presented as mean values±SEM (n=3).

[4] = molecular target: T1, hGzmB (Homo sapiens, UniProt P10144); test: HPLC conversion/cleavage of probes by hGzmB; type: biochemical; conditions: for cleavage at 100 nM for 24 h: 100 nM enzyme
T1 sequence (P10144 21-247): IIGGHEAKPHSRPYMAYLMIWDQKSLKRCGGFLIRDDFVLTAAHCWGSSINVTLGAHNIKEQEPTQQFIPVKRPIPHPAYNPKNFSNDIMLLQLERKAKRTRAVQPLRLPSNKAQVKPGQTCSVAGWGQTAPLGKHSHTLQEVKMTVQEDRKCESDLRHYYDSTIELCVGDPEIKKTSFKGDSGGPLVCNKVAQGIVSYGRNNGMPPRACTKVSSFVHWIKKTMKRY
Source text: FIG. 5. HPLC traces of the probe H5 before and after reaction with hGzmB. HPLC chromatogram and mass spectrometry analysis of the probe H5 before and after reaction with increasing concentrations of hGzmB. Mcalc. (intact probe): 1246.6 [M+Na^+]; Mcalc. (cleaved probe): 747.2 [M+H^+].

[5] = tested on: mKate-E0771 cancer cells; type: cell-based, mouse
Experimental: FIG. 8. […] Cell viability was determined using a commercially available MTT kit (Invitrogen) with values normalized to untreated cells. Data presented as mean values±SEM (2 independent experiments with 3 replicates for each).

[6] = molecular target: T2, human recombinant granzyme B (Homo sapiens, UniProt P10144); test: HPLC/MS analysis of probe cleavage by granzyme B in urine; type: biochemical; conditions: after 1 h with granzyme B present
T2 sequence (P10144 21-247): as above
Experimental: (§1) Following incubation, the samples were diluted with MeOH, centrifuged and the supernatant injected into the HPLC/MS. Samples were eluted with 0.1% HCOOH in H2O (A) and 0.1% HCOOH in MBCN (B), with a gradient of 0 to 100% B over 5 minutes and an additional isocratic period of 3 minutes with a flow rate of 1.5 mL min^−1. Reactions were monitored from 220-700 nm and percentage cleaved was determined by comparing peak area of the cleaved probe against the intact probe on MassLynx software.

[7] = type: in vitro ADME, human
Experimental: as §1, with “Probe (H5 or R7) (25 μM) was incubated with human recombinant granzyme B (15 nM) in Granzyme B buffer for 1.5 h at 37° C. Following” for “Following”
We first sought to address the stability of probe H5 and R7 and in urine from 3 healthy donors to ensure no cross-reactivity occurred with any other biomolecules that may be present in all urine samples. To do this we monitored the fluorescence response of probe H5 and R7 in urine with and without spiked granzyme B (15 nM) and also assessed stability via HPLC analysis. […] (FIG. 11). It should also be noted that HPLC-MS confirmed the cleavage of probe H5 and R7 after the aspartic acid residue (the natural granzyme B cleavage site).

[8] = molecular target: T1, hGzmB; test: Fluorescence assays with recombinant hGzmB; type: biochemical
Experimental: Fluorescence assays with recombinant enzymes. Fluorescence-based assays with enzymes were performed in buffer-1 (50 mM Tris, 100 mM NaCl, pH 7.4) for GzmB, pro-GzmB, GzmA and HNE, or buffer-2 (25 mM HEPES, 0.1% CHAPS, 10 mM DTT, pH 7.5) for caspases and other enzymes. Probes (25 μM) were added to enzymes (20 nM or at the indicated concentrations) in 384-well plates and their fluorescence emission was recorded at 450 nm (for AMC) or 510 nm (for BODIPY) at 37° C. using a Synergy H1 Hybrid reader (BioTek). In experiments with Ac-IEPD-CHO (50 μM), the inhibitor was pre-incubated for 1 h with GzmB before addition of any probe.

[9] = molecular target: T2, human recombinant granzyme B; test: Reactivity of NIR probes with granzyme B; type: biochemical
Experimental: With the probes in hand (Table 4) they were tested for their reactivity with human recombinant granzyme B to identify a lead candidate. Each probe was tested at a concentration of 25 μM against 20 nM granzyme B and fluorescence was recorded over 2 hours at 37° C. (λex: 620 nm, λem: 660 nm).

[10] = urine from 3 healthy donors, without granzyme B; conditions: human, 37° C., up to 3 hours
[11] = tested on: human recombinant granzyme B (15 nM); test: urine from 3 healthy donors with spiked granzyme B (15 nM); conditions: 37° C., up to 3 hours
[12] = tested on: GzmB; conditions: cited from earlier work
[13] = tested on: hGzmB (100 nM); conditions: human, up to 24 h

In the case of “IEPD-Dabcyl ({BODIPY(FL)}-IEPD-{Ethylenediamine-X1}; SMILES CC[C@H](C)[C@H](NC(=O)CCC1=[N+]2C(=Cc3c(C)cc(C)n3[B-]2(F)F)C=C1)C(=O)N[C@@H](CCC(=O)O)C(=O)N1CCC[C@H]1C(=O)N[C@@H](CC(=O)O)C(=O)NCCNC(=O)c1ccc(/N=N/c2ccc(N(C)C)cc2)cc1)”, the not cleaved [1] was <5% cleavage at 20 nM enzyme for 2 h.

For AZD5363 [C5], the “H5 fluorescence signal compared to IL-2 only controls” value [2] was “Increased fluorescence signals”, the “H5 fluorescence signal compared to IL-2 only controls” value ([2]; listed as AZD5363) was “brightest H5 fluorescence staining” and the “cancer cell death and H5 staining” value ([3]; AZD5363 on its own, E0771 cells) was “did not induce significant cancer cell death nor cause H5 staining”. For the same molecule, the “cancer cell death and H5 fluorescence emission” value ([3]; combination with 100 U mL^−1 IL-2, CD8+ T cell-E0771 co-cultures) was “caused significant cancer cell death and H5 fluorescence emission”.

With IEPDWR the cleaved bond [1] was “Asp-Trp”.

With IEPDSL the cleaved bond [1] was “Asp-Ser”.

For `CCC(C)[C@H](NC(=O)CCC1=[N+]2C(=Cc3c(C)cc(C)n3[B-]2(F)F)C=C1)C(=O)N[C@@H](CCC(=O)O)C(=O)N1CCC[C@H]1C(=O)N[C@@H](CC(=O)O)C(=O)N[C@@H](C)C(=O)N[C@@H](CC(C)C)C(=O)NCCNC(=O)c1ccc(/N=N/c2ccc(N(C)C)cc2)cc1` (stereo partly drawn) [H5] ({BODIPY(FL)}-[Ile(3ξ)]EPDAL-{Ethylenediamine-X1}), the “HPLC conversion (20 nM hGzmB, 2 h)” value [4] was 100%, the “cytotoxicity (cell viability)” value [5] was “not cytotoxic” and the “conversion to the cleaved probe in urine” value [6] was “up to 84%”. For the same molecule, the “probe cleaved in the urine sample alone (HPLC)” value [7] was “less than 1%”.

In the case of Ac-IEPD-aldehyde, the “effect of inhibitor on fluorescence response of H5 to hGzmB” value ([8]; Ac-IEPD-CHO 50 μM pre-incubated 1 h with GzmB) was “drastically reduced the fluorescence response of H5” and the “effect of inhibitor pre-incubation on fold change of R7” value ([9]; granzyme B pre-incubated with inhibitor) was “fold change decreased”.

With `CC[C@H](C)[C@H](NC(=O)CCC1=[N+]2C(=Cc3c(C)cc(C)n3[B-]2(F)F)C=C1)C(=O)N[C@@H](CCC(=O)O)C(=O)N1CCC[C@H]1C(=O)N[C@@H](CC(=O)O)C(=O)NCCNC(=O)c1ccc(/N=N/c2ccc(N(C)C)cc2)cc1` [T1] ({BODIPY(FL)}-IEPD-{Ethylenediamine-X1}) the “cleavage at 20 nM enzyme for 2 h” value [4] was < 5% and the “cleavage at 100 nM for 24 h” value [4] was 15%.

In the case of IEPDRL, the cleaved bond [1] was “Asp-Arg”.

With `C/C(=C\c1csc(C)n1)[C@@H]1C[C@@H]2O[C@]2(C)CCC[C@H](C)[C@H](O)[C@@H](C)C(=O)C(C)(C)[C@@H](O)CC(=O)O1` [C13, Epothilone B] the “H5 fluorescence signal compared to IL-2 only controls” value [2] was “Increased fluorescence signals”.

With “{BODIPY(FL)}-[Ile(3ξ)]EPDAL-{Ethylenediamine-X1} (SMILES CCC(C)[C@H](NC(=O)CCC1=[N+]2C(=Cc3c(C)cc(C)n3[B-]2(F)F)C=C1)C(=O)N[C@@H](CCC(=O)O)C(=O)N1CCC[C@H]1C(=O)N[C@@H](CC(=O)O)C(=O)N[C@@H](C)C(=O)N[C@@H](CC(C)C)C(=O)NCCNC(=O)c1ccc(/N=N/c2ccc(N(C)C)cc2)cc1) [H5]” the not cleaved [10] was “less than 1% of both probes had been cleaved whilst in the urine sample alone”, the cleaved bond [1] was “Asp-Ala” and the cleaved bond [11] was “aspartic acid-Ala”.

With Ile-Glu-Pro-Asp-Ala-Leu [R7] the not cleaved [10] was “less than 1% of both probes had been cleaved whilst in the urine sample alone”, the cleaved bond [1] was “aspartic acid-Ala” and the cleaved bond [11] was “aspartic acid-Ala”.

With “H5m (IEFDAL; also: FRET labels, positions not given here)” the “HPLC conversion (20 nM hGzmB, 2 h)” value [4] was 70%.

For IEPDAG, the cleaved bond [1] was “Asp-Ala”.

In the case of Ac-IEPD-{AMC} [listing 1 of 2 here], the LoD ([8]; limit of detection of hGzmB) was 25 nM, the “cleavage at 20 nM enzyme for 2 h” value [4] was < 1% and the “cleavage at 100 nM for 24 h” value [4] was 10%. For the same molecule, the Km [12] was 160 µM and the kcat [12] was 0.5 s⁻¹.

In the case of IEPDWL, the cleaved bond [1] was “Asp-Trp”.

With `CCC(C)[C@H](NC(=O)CCCCCN1/C(=C/C=C/C=C/C2=[N+](C)c3ccc(S(=O)(=O)[O-])cc3C2(C)C)C(C)(C)c2cc(S(=O)(=O)[O-])ccc21)C(=O)N[C@@H](CCC(=O)O)C(=O)N1CCC[C@H]1C(=O)N[C@@H](CC(=O)O)C(=O)N[C@@H](C)C(=O)N[C@@H](CC(C)C)C(=O)NCCOCCOCCOCCOCCNC(=O)C1CCN(S(=O)(=O)c2ccccc2-c2c3ccc(=[N+]4CCc5ccccc54)cc-3oc3cc(N4CCc5ccccc54)ccc23)CC1` (stereo partly drawn) [R7] the “conversion from intact to cleaved (HPLC-MS)” value ([9]; within 2 hours) was 100%, the “conversion to the cleaved probe in urine” value [6] was ≤ 99% and the “probe cleaved in the urine sample alone (HPLC)” value [7] was “less than 1%”.

In the case of `CO[C@@]12[C@H](COC(N)=O)C3=C(C(=O)C(C)=C(N)C3=O)N1C[C@@H]1N[C@@H]12` [C18, Mitomycin C], the “H5 fluorescence signal compared to IL-2 only controls” value [2] was “Increased fluorescence signals”.

With `C#CC[C@H](c1nc2cc(Cl)ccc2c(=O)n1Nc1ccccc1)N(CCCN)C(=O)c1cccc(Cl)c1F` [C12, ARQ621] the “H5 fluorescence signal compared to IL-2 only controls” value [2] was “Increased fluorescence signals”.

In the case of Ac-IEPD-{AMC} [listing 2 of 2 here], the cleaved bond [13] was “D-AMC” and the not cleaved [1] was <1% cleavage at 20 nM enzyme for 2 h.

In the case of `CC(=O)N[C@@H](CSC(=O)[C@]1([C@@H](O)C(C)C)NC(=O)[C@H](C)[C@@H]1O)C(=O)O` [C30, Lactacystin], the “H5 fluorescence signal compared to IL-2 only controls” value [2] was “Increased fluorescence signals”.

With `CC(=O)O[C@@]12CO[C@@H]1C[C@H](O)[C@@]1(C)C(=O)[C@H](O)C3=C(C)[C@@H](OC(=O)[C@H](O)[C@@H](NC(=O)OC(C)(C)C)c4ccccc4)C[C@@](O)([C@@H](OC(=O)c4ccccc4)[C@H]21)C3(C)C` [C11, Docetaxel] the “H5 fluorescence signal compared to IL-2 only controls” value [2] was “Increased fluorescence signals”.

With IEFDAL the cleaved bond [1] was “Asp-Ala”.

In the case of IEPDSG, the cleaved bond [1] was “Asp-Ser”.

From US20240376517A1 (THE UNIVERSITY COURT OF THE UNIVERSITY OF EDINBURCH, priority 2021, published 2024)
